Assay results taken from patent publication US5795864A (priority 1995, dated 1998).
Bridge positions count the residues as written; N and C are the ends. Square brackets hold non-standard residues; d marks the D form. Peptide text beside a SMILES is read from it. Hyp = O=C(O)[C@@H]1C[C@@H](O)CN1

Molecular target: OCT MVIIA (SNX-111) binding site (site 1) (Rattus norvegicus, UniProt Q02294)
Assay: biochemical

OCT MVIIA (SNX-111) binding site (site 1), sequence (Q02294 whole entry, looked up): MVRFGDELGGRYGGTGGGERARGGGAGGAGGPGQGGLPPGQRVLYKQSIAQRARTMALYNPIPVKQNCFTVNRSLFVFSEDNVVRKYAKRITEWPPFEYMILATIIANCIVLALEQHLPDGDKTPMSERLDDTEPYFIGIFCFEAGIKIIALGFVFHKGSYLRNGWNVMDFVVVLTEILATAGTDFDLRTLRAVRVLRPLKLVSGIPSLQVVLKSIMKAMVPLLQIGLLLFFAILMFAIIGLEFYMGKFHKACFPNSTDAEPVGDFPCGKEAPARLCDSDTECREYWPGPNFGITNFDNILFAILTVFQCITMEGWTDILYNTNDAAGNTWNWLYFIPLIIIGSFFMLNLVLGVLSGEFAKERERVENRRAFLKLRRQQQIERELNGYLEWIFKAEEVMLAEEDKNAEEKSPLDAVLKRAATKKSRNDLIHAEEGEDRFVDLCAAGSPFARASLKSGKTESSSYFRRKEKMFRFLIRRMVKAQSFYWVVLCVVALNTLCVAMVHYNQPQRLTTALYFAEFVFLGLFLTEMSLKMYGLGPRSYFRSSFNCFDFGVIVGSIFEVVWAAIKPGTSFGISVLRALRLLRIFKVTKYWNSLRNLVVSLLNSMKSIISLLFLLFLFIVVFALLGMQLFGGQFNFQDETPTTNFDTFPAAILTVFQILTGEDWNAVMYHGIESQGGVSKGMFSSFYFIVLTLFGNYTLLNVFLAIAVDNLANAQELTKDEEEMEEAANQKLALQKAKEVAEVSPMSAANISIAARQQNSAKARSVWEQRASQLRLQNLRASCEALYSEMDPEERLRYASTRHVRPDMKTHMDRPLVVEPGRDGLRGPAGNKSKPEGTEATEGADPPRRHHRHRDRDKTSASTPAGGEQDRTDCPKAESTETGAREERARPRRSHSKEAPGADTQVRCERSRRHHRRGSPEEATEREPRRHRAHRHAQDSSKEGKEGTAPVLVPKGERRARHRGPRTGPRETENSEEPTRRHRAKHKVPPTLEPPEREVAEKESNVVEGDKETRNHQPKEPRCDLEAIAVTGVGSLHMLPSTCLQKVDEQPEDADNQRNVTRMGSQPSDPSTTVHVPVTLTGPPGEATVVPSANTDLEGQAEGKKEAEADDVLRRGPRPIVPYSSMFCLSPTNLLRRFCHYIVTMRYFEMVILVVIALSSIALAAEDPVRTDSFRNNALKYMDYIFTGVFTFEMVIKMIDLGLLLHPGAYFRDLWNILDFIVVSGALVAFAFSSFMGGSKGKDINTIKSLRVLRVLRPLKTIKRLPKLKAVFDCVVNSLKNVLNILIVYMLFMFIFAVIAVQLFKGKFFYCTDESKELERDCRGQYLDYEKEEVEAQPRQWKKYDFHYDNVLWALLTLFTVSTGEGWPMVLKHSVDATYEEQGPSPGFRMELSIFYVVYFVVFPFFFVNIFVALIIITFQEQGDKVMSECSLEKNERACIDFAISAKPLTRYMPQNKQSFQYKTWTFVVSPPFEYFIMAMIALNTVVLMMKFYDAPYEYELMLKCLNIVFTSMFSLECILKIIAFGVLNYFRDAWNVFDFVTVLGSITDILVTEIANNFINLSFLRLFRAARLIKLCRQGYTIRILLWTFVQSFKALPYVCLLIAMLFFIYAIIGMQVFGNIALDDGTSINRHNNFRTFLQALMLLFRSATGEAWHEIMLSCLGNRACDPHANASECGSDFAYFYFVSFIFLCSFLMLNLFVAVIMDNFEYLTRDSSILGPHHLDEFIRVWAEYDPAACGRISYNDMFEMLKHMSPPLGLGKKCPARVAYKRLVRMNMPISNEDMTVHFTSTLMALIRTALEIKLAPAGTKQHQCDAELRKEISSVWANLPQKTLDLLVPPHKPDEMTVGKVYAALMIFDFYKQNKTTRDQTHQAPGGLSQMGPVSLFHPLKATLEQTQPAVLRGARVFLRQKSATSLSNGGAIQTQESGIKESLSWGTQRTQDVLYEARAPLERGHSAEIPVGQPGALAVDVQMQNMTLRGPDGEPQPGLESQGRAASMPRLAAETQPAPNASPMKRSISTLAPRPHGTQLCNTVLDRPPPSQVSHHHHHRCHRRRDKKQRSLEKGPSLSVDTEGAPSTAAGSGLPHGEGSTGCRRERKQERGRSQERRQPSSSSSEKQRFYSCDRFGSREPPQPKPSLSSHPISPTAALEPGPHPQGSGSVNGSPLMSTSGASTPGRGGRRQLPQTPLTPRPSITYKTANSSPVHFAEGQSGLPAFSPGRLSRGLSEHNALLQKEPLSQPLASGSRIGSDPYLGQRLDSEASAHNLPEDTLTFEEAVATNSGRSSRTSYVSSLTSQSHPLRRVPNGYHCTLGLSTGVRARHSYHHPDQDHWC

## CC[C@H](C)[C@@H]1NC(=O)[C@H](CO)NC(=O)[C@H]([C@@H](C)O)NC(=O)[C@H](C(C)C)NC(=O)CNC(=O)[C@@H]2CSSC[C@@H]3NC(=O)[C@H](CCCNC(=N)N)NC(=O)CNC(=O)[C@H](CSSC[C@H](N)C(=O)N[C@@H](CCCNC(=N)N)C(=O)N[C@@H](CO)C(=O)N[C@@H](CO)C(=O)NCC(=O)N[C@@H](CO)C(=O)N4C[C@H](O)C[C@H]4C(=O)N2)NC(=O)[C@H](CSSC[C@@H](C(=O)N[C@H](C(N)=O)[C@@H](C)O)NC(=O)[C@H](CCCCN)NC(=O)CNC(=O)[C@H](CCCNC(=N)N)NC(=O)[C@H](Cc2ccc(O)cc2)NC3=O)NC1=O [SNX-157] (H-CRSSGS[Hyp]CGVTSICCGRCYRGKCT-NH2; disulfide 1-15, 8-18, 14-23)
  IC50: 1460 nM
